Test results taken from PMC12521730, “Quantitative dual-isotope preclinical SPECT/CT imaging and biodistribution of the mercury-197m/g theranostic pair with [^197m/gHg]HgCl2 and a [^197m/gHg]Hg-tetrathiol complex as a platform for radiopharmaceutical development” (EJNMMI Radiopharmacy and Chemistry, 2025).

Assay: Ex vivo biodistribution (gamma counter)
Type: in vivo, healthy male C57BL/6 mice
Settings: 2 h post administration
Method: For animal injection, the tracer was prepared at high molar activity. Radiolabeling of H4Tetrathiol (10^–2 M in DMSO; 40 μL for imaging, 20 μL for bioD) (or DMSO, for [^197m/gHg]HgCl2 mice) with [^197m/gHg]HgCl2 (imaging: 26.7 MBq total m + g, 62 μL; bioD: 13.04 MBq total m + g, 31 μL) was performed in a mixture of ammonium acetate buffer (1 M; pH 7; 198 μL for imaging or 149 μL for bioD) and 6 M NaOH (72 μL or 38 μL required to achieve a pH of 7.5 after addition of activity, for imaging or BioD labeling, respectively). The reaction was allowed to stand for 1 h at 37 °C and quantitative (> 99%) non-isolated percentage radiochemical yield (%RCY) was confirmed via the iTLC methods mentioned above. Further, 100 µL of the reaction was diluted with 50 µL of PBS Tween-20 (0.01 M sodium phosphate, 0.15 M NaCl, 0.05% Tween-20) for imaging mice, or 50 µL of the reaction was diluted with 100 µL of PBS Tween-20 for BioD mice. The tracers were prepared immediately before injection to avoid radiolysis and minimize the tracer loss to any surfaces due to its lipophilicity. The injected doses of each isomer, ^197mHg and ^197gHg, were quantified by measuring an aliquot of known volume of each tracer preparation via HPGe gamma spectroscopy and decay corrected for time of injection using the Eqs. (1) and (2).
The study was conducted in compliance with the guidelines set by the Canadian Council on Animal Care (CCAC) and approved by the Animal Care Committee (ACC) at the University of British Columbia (A20-0132). A total of eight healthy male C57BL/6 mice weighing approximately 30 g for group 1 and 25 g for group 2 were used in the study. The mice were divided into two experimental groups: group 1 (n = 4) received free [^197m/gHg]HgCl2, while group 2 (n = 4) received [^197m/gHg]Hg-Tetrathiol. Within each group, one mouse was allocated for imaging, while the rest were designated for ex vivo biodistribution analysis. For SPECT imaging, the designated mice were anesthetized using isoflurane via a precision vaporizer. […] Once anesthetized, each imaging mouse received an intravenous (IV) injection via the lateral tail vein of 150 μL of [^197m/gHg]HgCl2 (0.492 MBq ^197mHg + 3.171 MBq ^197gHg) or [^197m/gHg]Hg-Tetrathiol (0.899 MBq ^197mHg + 4.230 MBq ^197gHg) in PBS Tween-20 (0.01 M Na Phosphate, 0.15 M NaCl, 0.05% Tween-20).
Mice received an IV injection of [^197m/gHg]HgCl2 (0.275 MBq ^197mHg + 1.758 MBq ^197gHg, 150 μL) or [^197m/gHg]Hg-Tetrathiol (0.384 MBq ^197mHg + 1.733 MBq ^197gHg, 150 μL) (n = 3 per group) via the lateral tail vein using a Tailveiner restrainer. After the injection, the mice were returned to their experimental cages and allowed unrestricted movement. Biodistribution studies were conducted 2 h after administration. Mice were humanely euthanized with an overdose of isoflurane followed by cardiac puncture to collect blood pool activity. The organs of interest were fully extracted, cleaned of blood without rinsing, weighed, and analysed for radioactivity using a calibrated gamma counter with the 55–93 keV energy window for ^197gHg and the 110–160 keV energy window for ^197mHg (Packard Cobra II, Perkin Elmer, Waltham, MA, USA). The stomach and intestines were carefully cleaned prior to analysis to remove residual contents. For tissues and fluids that could not be fully removed (muscle, blood and bone) activity values were extrapolated based on standardised organ weights for age- and sex-matched mice tables to ensure accurate normalization (Davies and Morris [1993]; Foster et al. [2014]). The stomach and whole intestines were cleaned before analysis. The radioactivity measurements were decay corrected for time of injection using the Eqs. (1) and (2). The results are reported as the percentage of the injected activity per gram of tissue (%IA/g) and percentage of the injected activity per tissue (%IA/organ).

[Cl][Hg][Cl] [[^197m/gHg]HgCl2]
Animal 4 (%IA/g) g: kidneys (Hg-197g): 120 %IA/g
Animal 4 (%IA/g) g: large intestine (Hg-197g): 2.62 %IA/g
Animal 4 (%IA/g) g: liver (Hg-197g): 4.99 %IA/g
Animal 4 (%IA/g) g: lungs (Hg-197g): 3.08 %IA/g
Animal 4 (%IA/g) g: muscle (Hg-197g): 0.53 %IA/g
Animal 4 (%IA/g) g: pancreas (Hg-197g): 1.46 %IA/g
Animal 4 (%IA/g) g: small intestine (Hg-197g): 2.62 %IA/g
Animal 4 (%IA/g) g: spleen (Hg-197g): 3.58 %IA/g
Animal 4 (%IA/g) g: stomach (Hg-197g): 1.76 %IA/g
Animal 4 (%IA/g) g: tail (Hg-197g): 3.76 %IA/g
Animal 4 (%IA/g) g: urine (Hg-197g): 3.49 %IA/g
Average (%IA/Organ): bladder (Hg-197g): 0.06 %IA/Organ
Average (%IA/Organ): blood (Hg-197g): 5.81 %IA/Organ
Average (%IA/Organ): bone (Hg-197g): 4.16 %IA/Organ
Average (%IA/Organ): brain (Hg-197g): 0.05 %IA/Organ
Average (%IA/Organ): feces (Hg-197g): 0.05 %IA/Organ
Average (%IA/Organ): heart (Hg-197g): 0.25 %IA/Organ
Average (%IA/Organ): kidneys (Hg-197g): 48.31 %IA/Organ
Average (%IA/Organ): large intestine (Hg-197g): 0.57 %IA/Organ
Average (%IA/Organ): liver (Hg-197g): 7.78 %IA/Organ
Average (%IA/Organ): lungs (Hg-197g): 0.58 %IA/Organ
Average (%IA/Organ): muscle (Hg-197g): 8.08 %IA/Organ
Average (%IA/Organ): pancreas (Hg-197g): 0.25 %IA/Organ
Average (%IA/Organ): small intestine (Hg-197g): 0.70 %IA/Organ
Average (%IA/Organ): spleen (Hg-197g): 0.31 %IA/Organ
Average (%IA/Organ): stomach (Hg-197g): 0.20 %IA/Organ
Average (%IA/Organ): tail (Hg-197g): 2.59 %IA/Organ
Average (%IA/Organ): urine (Hg-197g): 0.65 %IA/Organ
Average Hg-197g (%IA/g): bladder (Hg-197g): 2.10 %IA/g
Average Hg-197g (%IA/g): blood (Hg-197g): 3.53 %IA/g
Average Hg-197g (%IA/g): bone (Hg-197g): 1.94 %IA/g
Average Hg-197g (%IA/g): brain (Hg-197g): 0.13 %IA/g
Average Hg-197g (%IA/g): feces (Hg-197g): 1.29 %IA/g
Average Hg-197g (%IA/g): heart (Hg-197g): 1.79 %IA/g
Average Hg-197g (%IA/g): kidneys (Hg-197g): 111.17 %IA/g
Average Hg-197g (%IA/g): large intestine (Hg-197g): 2.77 %IA/g
Average Hg-197g (%IA/g): liver (Hg-197g): 5.03 %IA/g
Average Hg-197g (%IA/g): lungs (Hg-197g): 3.83 %IA/g
Average Hg-197g (%IA/g): muscle (Hg-197g): 0.63 %IA/g
Average Hg-197g (%IA/g): pancreas (Hg-197g): 1.48 %IA/g
Average Hg-197g (%IA/g): small intestine (Hg-197g): 3.17 %IA/g
Average Hg-197g (%IA/g): spleen (Hg-197g): 3.93 %IA/g
Average Hg-197g (%IA/g): stomach (Hg-197g): 1.87 %IA/g
Average Hg-197g (%IA/g): tail (Hg-197g): 5.12 %IA/g
Average Hg-197g (%IA/g): urine (Hg-197g): 4.08 %IA/g
Animal 1 (%IA/g) m: bladder (Hg-197m): 1.81 %IA/g
Animal 1 (%IA/g) m: blood (Hg-197m): 8.43 %IA/g
Animal 1 (%IA/g) m: bone (Hg-197m): 3.43 %IA/g
Animal 1 (%IA/g) m: brain (Hg-197m): 0.27 %IA/g
Animal 1 (%IA/g) m: feces (Hg-197m): 1.31 %IA/g
Animal 1 (%IA/g) m: heart (Hg-197m): 3.85 %IA/g
Animal 1 (%IA/g) m: large intestine (Hg-197m): 5.33 %IA/g
Animal 1 (%IA/g) m: lungs (Hg-197m): 8.68 %IA/g
Animal 1 (%IA/g) m: muscle (Hg-197m): 1.38 %IA/g
Animal 1 (%IA/g) m: pancreas (Hg-197m): 2.69 %IA/g
Animal 1 (%IA/g) m: small intestine (Hg-197m): 6.99 %IA/g
Animal 1 (%IA/g) m: spleen (Hg-197m): 8.59 %IA/g
Animal 1 (%IA/g) m: stomach (Hg-197m): 3.64 %IA/g
Animal 1 (%IA/g) m: tail (Hg-197m): 16.30 %IA/g
Animal 1 (%IA/g) m: urine (Hg-197m): 8.15 %IA/g
Animal 2 (%IA/g) m: bladder (Hg-197m): 4.08 %IA/g
Animal 2 (%IA/g) m: blood (Hg-197m): 5.94 %IA/g
Animal 2 (%IA/g) m: bone (Hg-197m): 2.79 %IA/g
Animal 2 (%IA/g) m: brain (Hg-197m): 0.15 %IA/g
Animal 2 (%IA/g) m: feces (Hg-197m): 0.59 %IA/g
Animal 2 (%IA/g) m: heart (Hg-197m): 2.24 %IA/g
Animal 2 (%IA/g) m: large intestine (Hg-197m): 3.94 %IA/g
Animal 2 (%IA/g) m: liver (Hg-197m): 10.33 %IA/g
Animal 2 (%IA/g) m: lungs (Hg-197m): 4.50 %IA/g
Animal 2 (%IA/g) m: muscle (Hg-197m): 0.74 %IA/g
Animal 2 (%IA/g) m: pancreas (Hg-197m): 1.94 %IA/g
Animal 2 (%IA/g) m: small intestine (Hg-197m): 4.20 %IA/g
Animal 2 (%IA/g) m: spleen (Hg-197m): 4.74 %IA/g
Animal 2 (%IA/g) m: stomach (Hg-197m): 2.42 %IA/g
Animal 2 (%IA/g) m: tail (Hg-197m): 7.26 %IA/g
Animal 2 (%IA/g) m: urine (Hg-197m): 5.31 %IA/g
Animal 3 (%IA/g) m: bladder (Hg-197m): 2.14 %IA/g
Animal 3 (%IA/g) m: blood (Hg-197m): 5.50 %IA/g
Animal 3 (%IA/g) m: bone (Hg-197m): 2.67 %IA/g
Animal 3 (%IA/g) m: brain (Hg-197m): 0.17 %IA/g
Animal 3 (%IA/g) m: feces (Hg-197m): 3.93 %IA/g
Animal 3 (%IA/g) m: heart (Hg-197m): 2.10 %IA/g
Animal 3 (%IA/g) m: large intestine (Hg-197m): 3.68 %IA/g
Animal 3 (%IA/g) m: liver (Hg-197m): 10.14 %IA/g
Animal 3 (%IA/g) m: lungs (Hg-197m): 5.07 %IA/g
Animal 3 (%IA/g) m: muscle (Hg-197m): 0.79 %IA/g
Animal 3 (%IA/g) m: pancreas (Hg-197m): 2.04 %IA/g
Animal 3 (%IA/g) m: small intestine (Hg-197m): 4.50 %IA/g
Animal 3 (%IA/g) m: spleen (Hg-197m): 4.18 %IA/g
Animal 3 (%IA/g) m: stomach (Hg-197m): 2.28 %IA/g
Animal 3 (%IA/g) m: tail (Hg-197m): 7.21 %IA/g
Animal 3 (%IA/g) m: urine (Hg-197m): 5.63 %IA/g
Animal 4 (%IA/g) m: bladder (Hg-197m): 4.20 %IA/g
Animal 4 (%IA/g) m: blood (Hg-197m): 4.96 %IA/g
Animal 4 (%IA/g) m: bone (Hg-197m): 2.78 %IA/g
Animal 4 (%IA/g) m: brain (Hg-197m): 0.17 %IA/g
Animal 4 (%IA/g) m: feces (Hg-197m): 1.53 %IA/g
Animal 4 (%IA/g) m: heart (Hg-197m): 2.14 %IA/g
Animal 4 (%IA/g) m: large intestine (Hg-197m): 3.97 %IA/g
Animal 4 (%IA/g) m: liver (Hg-197m): 10.31 %IA/g
Animal 4 (%IA/g) m: lungs (Hg-197m): 4.53 %IA/g
Animal 4 (%IA/g) m: muscle (Hg-197m): 0.81 %IA/g
Animal 4 (%IA/g) m: pancreas (Hg-197m): 2.24 %IA/g
Animal 4 (%IA/g) m: small intestine (Hg-197m): 3.96 %IA/g
Animal 4 (%IA/g) m: spleen (Hg-197m): 5.42 %IA/g
Animal 4 (%IA/g) m: stomach (Hg-197m): 2.56 %IA/g
Animal 4 (%IA/g) m: tail (Hg-197m): 5.98 %IA/g
Animal 4 (%IA/g) m: urine (Hg-197m): 5.02 %IA/g
Average Hg-197m (%IA/g): bladder (Hg-197m): 3.06 %IA/g
Average Hg-197m (%IA/g): blood (Hg-197m): 6.21 %IA/g
Average Hg-197m (%IA/g): bone (Hg-197m): 2.92 %IA/g
Average Hg-197m (%IA/g): brain (Hg-197m): 0.19 %IA/g
Average Hg-197m (%IA/g): feces (Hg-197m): 1.84 %IA/g
Average Hg-197m (%IA/g): heart (Hg-197m): 2.58 %IA/g
Average Hg-197m (%IA/g): large intestine (Hg-197m): 4.23 %IA/g
Average Hg-197m (%IA/g): liver (Hg-197m): 10.26 %IA/g
Average Hg-197m (%IA/g): lungs (Hg-197m): 5.70 %IA/g
Average Hg-197m (%IA/g): muscle (Hg-197m): 0.93 %IA/g
Average Hg-197m (%IA/g): pancreas (Hg-197m): 2.23 %IA/g
Average Hg-197m (%IA/g): small intestine (Hg-197m): 4.92 %IA/g
Average Hg-197m (%IA/g): spleen (Hg-197m): 5.73 %IA/g
Average Hg-197m (%IA/g): stomach (Hg-197m): 2.72 %IA/g
Average Hg-197m (%IA/g): tail (Hg-197m): 9.19 %IA/g
Average Hg-197m (%IA/g): urine (Hg-197m): 6.03 %IA/g
